Assay results as given in the NIST ThermoML archive (doi:10.1016/j.tca.2014.05.034).
Numbers after ± are expanded uncertainties.

Assay: xn = mol fraction of the nth substance listed
Settings: 100 kPa, Liquid; for kinematic viscosity: Capillary tube (Ostwald / Ubbelohde) method; for mass density: Pycnometric method

`NCCN` [ethane-1,2-diamine] + OCCOCCO showed a kinematic viscosity (298.15 K, x1 = 0.085) of 2.94e-05 ± 2e-07 m2/s, a kinematic viscosity (298.15 K, x1 = 0.164) of 3.37e-05 ± 3e-07 m2/s and a kinematic viscosity (298.15 K, x1 = 0.2376) of 3.68e-05 ± 3e-07 m2/s. The kinematic viscosity (298.15 K, x1 = 0.3062) was 3.81e-05 ± 3e-07 m2/s, the kinematic viscosity (298.15 K, x1 = 0.3705) was 3.7e-05 ± 3e-07 m2/s and the kinematic viscosity (298.15 K, x1 = 0.4308) was 3.36e-05 ± 3e-07 m2/s. The kinematic viscosity (298.15 K, x1 = 0.4874) was 2.87e-05 ± 2e-07 m2/s, the kinematic viscosity (298.15 K, x1 = 0.5407) was 2.31e-05 ± 2e-07 m2/s and the kinematic viscosity (298.15 K, x1 = 0.5909) was 1.81e-05 ± 2e-07 m2/s. It also gave a kinematic viscosity (298.15 K, x1 = 0.6384) of 1.4e-05 ± 1e-07 m2/s, a kinematic viscosity (298.15 K, x1 = 0.6834) of 1.06e-05 ± 1e-07 m2/s and a kinematic viscosity (298.15 K, x1 = 0.7259) of 8.32e-06 ± 7e-08 m2/s. For the same molecule, the kinematic viscosity (298.15 K, x1 = 0.7663) was 6.39e-06 ± 5e-08 m2/s, the kinematic viscosity (298.15 K, x1 = 0.8047) was 4.97e-06 ± 4e-08 m2/s and the kinematic viscosity (298.15 K, x1 = 0.876) was 3.22e-06 ± 3e-08 m2/s. The kinematic viscosity (298.15 K, x1 = 0.9408) was 2.23e-06 ± 2e-08 m2/s, the kinematic viscosity (298.15 K, x1 = 1) was 1.56e-06 ± 1e-08 m2/s and the mass density (298.15 K, x1 = 0.085) was 1104.7 ± 0.7 kg/m3. It also gave a mass density (298.15 K, x1 = 0.164) of 1096.3 ± 0.7 kg/m3, a mass density (298.15 K, x1 = 0.2376) of 1087.5 ± 0.7 kg/m3 and a mass density (298.15 K, x1 = 0.3062) of 1078.1 ± 0.7 kg/m3. It also gave a mass density (298.15 K, x1 = 0.3705) of 1068.3 ± 0.7 kg/m3, a mass density (298.15 K, x1 = 0.4308) of 1057.7 ± 0.7 kg/m3 and a mass density (298.15 K, x1 = 0.4874) of 1046.5 ± 0.7 kg/m3. It also gave a mass density (298.15 K, x1 = 0.5407) of 1034.6 ± 0.7 kg/m3, a mass density (298.15 K, x1 = 0.5909) of 1022.5 ± 0.7 kg/m3 and a mass density (298.15 K, x1 = 0.6384) of 1010.7 ± 0.7 kg/m3. The mass density (298.15 K, x1 = 0.6834) was 997.9 ± 0.7 kg/m3, the mass density (298.15 K, x1 = 0.7259) was 986.3 ± 0.7 kg/m3 and the mass density (298.15 K, x1 = 0.7663) was 973.7 ± 0.7 kg/m3. The mass density (298.15 K, x1 = 0.8047) was 961.5 ± 0.7 kg/m3, the mass density (298.15 K, x1 = 0.876) was 938.1 ± 0.7 kg/m3 and the mass density (298.15 K, x1 = 0.9408) was 916.1 ± 0.7 kg/m3. For the same molecule, the mass density (298.15 K, x1 = 1) was 893.3 ± 0.7 kg/m3, the kinematic viscosity (303.15 K, x1 = 0.085) was 2.32e-05 ± 2e-07 m2/s and the kinematic viscosity (303.15 K, x1 = 0.164) was 2.62e-05 ± 2e-07 m2/s. For the same molecule, the kinematic viscosity (303.15 K, x1 = 0.2376) was 2.84e-05 ± 2e-07 m2/s, the kinematic viscosity (303.15 K, x1 = 0.3062) was 2.92e-05 ± 2e-07 m2/s and the kinematic viscosity (303.15 K, x1 = 0.3705) was 2.82e-05 ± 2e-07 m2/s. It also gave a kinematic viscosity (303.15 K, x1 = 0.4308) of 2.57e-05 ± 2e-07 m2/s, a kinematic viscosity (303.15 K, x1 = 0.4874) of 2.22e-05 ± 2e-07 m2/s and a kinematic viscosity (303.15 K, x1 = 0.5407) of 1.8e-05 ± 2e-07 m2/s. For the same molecule, the kinematic viscosity (303.15 K, x1 = 0.5909) was 1.44e-05 ± 1e-07 m2/s, the kinematic viscosity (303.15 K, x1 = 0.6384) was 1.13e-05 ± 1e-07 m2/s and the kinematic viscosity (303.15 K, x1 = 0.6834) was 8.7e-06 ± 7e-08 m2/s. The kinematic viscosity (303.15 K, x1 = 0.7259) was 6.95e-06 ± 6e-08 m2/s, the kinematic viscosity (303.15 K, x1 = 0.7663) was 5.42e-06 ± 5e-08 m2/s and the kinematic viscosity (303.15 K, x1 = 0.8047) was 4.27e-06 ± 4e-08 m2/s. For the same molecule, the kinematic viscosity (303.15 K, x1 = 0.876) was 2.84e-06 ± 3e-08 m2/s, the kinematic viscosity (303.15 K, x1 = 0.9408) was 1.99e-06 ± 2e-08 m2/s and the kinematic viscosity (303.15 K, x1 = 1) was 1.39e-06 ± 1e-08 m2/s. For the same molecule, the mass density (303.15 K, x1 = 0.085) was 1101.3 ± 0.7 kg/m3, the mass density (303.15 K, x1 = 0.164) was 1092.8 ± 0.7 kg/m3 and the mass density (303.15 K, x1 = 0.2376) was 1083.9 ± 0.7 kg/m3. It also gave a mass density (303.15 K, x1 = 0.3062) of 1074.5 ± 0.7 kg/m3, a mass density (303.15 K, x1 = 0.3705) of 1064.5 ± 0.7 kg/m3 and a mass density (303.15 K, x1 = 0.4308) of 1053.8 ± 0.7 kg/m3. The mass density (303.15 K, x1 = 0.4874) was 1042.7 ± 0.7 kg/m3, the mass density (303.15 K, x1 = 0.5407) was 1030.8 ± 0.7 kg/m3 and the mass density (303.15 K, x1 = 0.5909) was 1018.7 ± 0.7 kg/m3. The mass density (303.15 K, x1 = 0.6384) was 1006.8 ± 0.7 kg/m3, the mass density (303.15 K, x1 = 0.6834) was 994 ± 0.7 kg/m3 and the mass density (303.15 K, x1 = 0.7259) was 982.6 ± 0.7 kg/m3. The mass density (303.15 K, x1 = 0.7663) was 970.1 ± 0.7 kg/m3, the mass density (303.15 K, x1 = 0.8047) was 957.5 ± 0.7 kg/m3 and the mass density (303.15 K, x1 = 0.876) was 934.4 ± 0.7 kg/m3. It also gave a mass density (303.15 K, x1 = 0.9408) of 912.8 ± 0.7 kg/m3, a mass density (303.15 K, x1 = 1) of 888.8 ± 0.7 kg/m3 and a kinematic viscosity (308.15 K, x1 = 0.085) of 1.85e-05 ± 2e-07 m2/s. For the same molecule, the kinematic viscosity (308.15 K, x1 = 0.164) was 2.07e-05 ± 2e-07 m2/s, the kinematic viscosity (308.15 K, x1 = 0.2376) was 2.22e-05 ± 2e-07 m2/s and the kinematic viscosity (308.15 K, x1 = 0.3062) was 2.27e-05 ± 2e-07 m2/s. For the same molecule, the kinematic viscosity (308.15 K, x1 = 0.3705) was 2.19e-05 ± 2e-07 m2/s, the kinematic viscosity (308.15 K, x1 = 0.4308) was 2e-05 ± 2e-07 m2/s and the kinematic viscosity (308.15 K, x1 = 0.4874) was 1.74e-05 ± 1e-07 m2/s. For the same molecule, the kinematic viscosity (308.15 K, x1 = 0.5407) was 1.44e-05 ± 1e-07 m2/s, the kinematic viscosity (308.15 K, x1 = 0.5909) was 1.15e-05 ± 1e-07 m2/s and the kinematic viscosity (308.15 K, x1 = 0.6384) was 9.35e-06 ± 8e-08 m2/s. It also gave a kinematic viscosity (308.15 K, x1 = 0.6834) of 7.27e-06 ± 6e-08 m2/s, a kinematic viscosity (308.15 K, x1 = 0.7259) of 5.89e-06 ± 5e-08 m2/s and a kinematic viscosity (308.15 K, x1 = 0.7663) of 4.66e-06 ± 4e-08 m2/s. It also gave a kinematic viscosity (308.15 K, x1 = 0.8047) of 3.71e-06 ± 3e-08 m2/s, a kinematic viscosity (308.15 K, x1 = 0.876) of 2.52e-06 ± 2e-08 m2/s and a kinematic viscosity (308.15 K, x1 = 0.9408) of 1.8e-06 ± 2e-08 m2/s. For the same molecule, the kinematic viscosity (308.15 K, x1 = 1) was 1.27e-06 ± 1e-08 m2/s.
